The results in this text go back to patent US20050209278A1, “Piperidinyl- and piperazinyl-sulfonylmethyl hydroxamic acids and their use as protease inhibitors” (priority 2002, published 2005).

As usually defined, the IC50 is the concentration that gives 50% inhibition.

The assay has as its target T1, MMP-2 (Homo sapiens, UniProt P08253).
T1 construct: made in house; host or cells: MMP-2-transfected p2AHT2 cells
T1 sequence (P08253 110-660): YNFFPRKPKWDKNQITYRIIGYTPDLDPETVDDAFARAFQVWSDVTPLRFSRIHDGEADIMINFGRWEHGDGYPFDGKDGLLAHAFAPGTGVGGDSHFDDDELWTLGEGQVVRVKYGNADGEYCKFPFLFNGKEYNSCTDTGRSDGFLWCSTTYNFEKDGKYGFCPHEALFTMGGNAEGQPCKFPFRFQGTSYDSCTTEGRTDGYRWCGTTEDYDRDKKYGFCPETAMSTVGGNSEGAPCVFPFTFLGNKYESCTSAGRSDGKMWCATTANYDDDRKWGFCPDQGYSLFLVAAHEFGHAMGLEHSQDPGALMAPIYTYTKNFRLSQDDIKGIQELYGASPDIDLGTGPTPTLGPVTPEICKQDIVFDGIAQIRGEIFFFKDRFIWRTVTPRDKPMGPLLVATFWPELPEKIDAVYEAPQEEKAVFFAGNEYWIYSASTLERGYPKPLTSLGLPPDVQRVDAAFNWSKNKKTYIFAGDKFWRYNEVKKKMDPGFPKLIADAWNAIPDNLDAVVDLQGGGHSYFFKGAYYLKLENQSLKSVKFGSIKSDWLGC
Briefly: In vitro MMP inhibition, IC50 determination (fluorogenic substrate I). The class given is biochemical. Conditions: values in parenthesis; 4 μM substrate I; room temperature. The method, then: Several hydroxamic acids and salts thereof were analyzed in in vitro assays to determine their ability to inhibit the MMP cleavage of peptide substrates. […] and IC50 constants were calculated from the assayed hydroxamic acid-MMP interactions.
Human recombinant MMP-1, MMP-2, MMP-9, MMP-13, and MMP-14 were used in this assay. All enzymes were prepared in Assignee's laboratories following usual laboratory procedures. Protocols for the preparation and use of these enzymes are available in the scientific literature. See, e.g., Enzyme Nomenclature (Academic Press, San Diego, Calif., 1992) (and the citations therein). See also, Freije et al., “Molecular cloning and expression of collagenase-3, a novel human matrix metalloproteinase produced by breast carcinomas,” J Biol. Chem., 269(24), 16766-16773 (1994).
The MMP-2 proenzyme was purified by gelatin Sepharose chromatography from MMP-2-transfected p2AHT2 cells provided by Dr. Gregory Goldberg of Washington University (St. Louis, Mo.).
All MMPs were activated using 4-aminophenylmercuric acetate (“APMA”, Sigma Chemical, St. Louis, Mo.) or trypsin. MMP-9 also was activated using human recombinant MMP-3 (purified in Assignee's laboratory following standard cloning and purification techniques).
Two fluorogenic, methoxycoumarin-containing polypeptide substrates were used in the MMP inhibition assays: [drawing 427] Here, “Dpa” is 3-(2,4-dinitrophenyl)-L-2,3-diaminopropionyl group, and “MCA” is 7-methoxycoumarin-4-yl acetyl. Substrate (I) was purchased from Baychem (Redwood City, Calif.), and substrate II was prepared Assignee's laboratory. Substrate I was used in the IC50 determination assays, while substrate II was used in the Ki determination assays. In the absence of MMP inhibitory activity, either substrate is cleaved at the Gly-Leu peptide bond. This cleavage separates the highly fluorogenic peptide from the 2,4-dinitrophenyl quencher, thus resulting in increase of fluorescent intensity.
The stock solutions of the assayed hydroxamic acids (or salts thereof) were prepared in 1% dimethyl sulfoxide (DMSO). These stock solutions were diluted in Buffer A (100 mM Tris-HCl, 100 mM NaCl, 10 mM CaCl2, 0.05% polyoxyethylene 23 lauryl ether, pH 7.5) to obtain solutions with different hydroxamic acid concentrations, i.e., assay solutions with different concentrations of the assayed MMP inhibitory compound. The experiment controls contained the same amount of Buffer A/DMSO as the assayed sample, but contained no hydroxamic acid (or salt thereof).
The assays from which the IC50 determinations were made were performed as follows. The MMPs were activated with either trypsin or APMA (4-aminophenylmercuric acetate, Sigma Chemical, St. Louis, Mo.). The assayed hydroxamic acid samples were incubated in Microfluor™ White Plates (Dynatech, Chantilly, Va.) and analyzed on a Perkin Elmer L550 plate reader (Norwalk, Conn.). The excitation wavelength was 328 nm, and the emission wavelength—415 nm. All samples (assayed hydroxamic acids and controls) were incubated in separate plates at room temperature in the presence of 4 μM of MMP substrate (I). As stated in the previous paragraph, samples containing varying concentrations of the same assayed hydroxamic acid were prepared. Inhibition was measured as a reduction in fluorescent intensity as a function of MMP inhibitor concentration.
The above protocols were used to determine IC50 constants and Ki values for the compounds in Examples 1-27 above. All values in Table 2 are given in nM units. The IC50 measurements are in parenthesis.

Structures can show the parent of a compound that is named as a salt. Bounds are passed on as bounds.

As to `CCCCc1ccc(N2CCN(S(=O)(=O)C3(C(=O)NO)CCN(CCOC)CC3)CC2)cc1` [Example 5, 4-{[4-(4-butylphenyl)piperazin-1-yl]sulfonyl}-N-hydroxy-1-(2-methoxyethyl)piperidine-4-carboxamide Dihydrochloride], the IC50 was below 0.1 nM.
On to `CCCCCc1ccc(C2CCN(S(=O)(=O)C3(C(=O)NO)CCN(CCOC)CC3)CC2)cc1` [Example 15, N-hydroxy-1-(2-methoxyethyl)-4-{[4-(4-pentylpheyl)piperidin-1-yl]sulfonyl}piperidine-4-carboxamide Hydrochloride], for which the IC50 is 0.1 nM.
